Read-outs that look alike come from different tables or passages of the source.
What was measured:
Phytophthora infestans = assay type: in vivo; details: for E, Expected % disease control / O, Observed % disease control / O-E: A76 potato
Oidium lycopersici = test: Powdery mildew assay on detached tomato leaflets, % disease control, observed vs expected (Colby); assay type: in vivo
[1] = 0.03 ppm, Jan. 25, 2001, FB 2001/3001
[2] = 0.03 ppm, Jan. 26, 2001, FB 2001/3001
[3] = 0.03 ppm, Jan. 27, 2001, FB 2001/3001
[4] = 0.03 ppm, Jan. 28, 2001, FB 2001/3001
[5] = 0.03 ppm, Jan. 29, 2001, FB 2001/3001
[6] = 0.1 ppm, Jan. 25, 2001, FB 2001/3001
[7] = 0.1 ppm, Jan. 26, 2001, FB 2001/3001
[8] = 0.1 ppm, Jan. 27, 2001, FB 2001/3001
[9] = 0.1 ppm, Jan. 28, 2001, FB 2001/3001
[10] = 0.1 ppm, Jan. 29, 2001, FB 2001/3001
[11] = 0.3 ppm, Jan. 25, 2001, FB 2001/3001
[12] = 0.3 ppm, Jan. 26, 2001, FB 2001/3001
[13] = 0.3 ppm, Jan. 27, 2001, FB 2001/3001
[14] = 0.3 ppm, Jan. 28, 2001, FB 2001/3001
[15] = 0.3 ppm, Jan. 29, 2001, FB 2001/3001
[16] = tomato 980 Le/MM/Cf9-8, 0.1 ppm, Feb. 16, 2001
[17] = tomato 980 Le/MM/Cf9-8, 0.1 ppm, Feb. 17, 2001
[18] = tomato 980 Le/MM/Cf9-8, 0.1 ppm, Feb. 18, 2001
[19] = tomato 980 Le/MM/Cf9-8, 0.1 ppm, Feb. 19, 2001
[20] = tomato 980 Le/MM/Cf9-8, 0.1 ppm, Feb. 20, 2001
[21] = tomato 980 Le/MM/Cf9-44, 0.1 ppm, Feb. 16, 2001
[22] = tomato 980 Le/MM/Cf9-44, 0.1 ppm, Feb. 17, 2001
[23] = tomato 980 Le/MM/Cf9-44, 0.1 ppm, Feb. 18, 2001
[24] = tomato 980 Le/MM/Cf9-44, 0.1 ppm, Feb. 19, 2001
[25] = tomato 980 Le/MM/Cf9-44, 0.1 ppm, Feb. 20, 2001
[26] = tomato 981 Le/MM/Cf9-22, 0.1 ppm, Feb. 16, 2001
[27] = tomato 981 Le/MM/Cf9-22, 0.1 ppm, Feb. 17, 2001
[28] = tomato 981 Le/MM/Cf9-22, 0.1 ppm, Feb. 18, 2001
[29] = tomato 981 Le/MM/Cf9-22, 0.1 ppm, Feb. 19, 2001
[30] = tomato 981 Le/MM/Cf9-22, 0.1 ppm, Feb. 20, 2001

In the case of CO/C=C(/C(=O)OC)c1ccccc1Oc1cc(Oc2ccccc2C#N)ncn1 [Azoxystrobin, azoxystrobin], the “E, Expected % disease control” value (Phytophthora infestans; [1]) is reported as 85.1%, the “O, Observed % disease control” value (Phytophthora infestans; [1]) is reported as 86.1% and the O-E (Phytophthora infestans; [1]) is reported as 1.0. For the same compound, the “E, Expected % disease control” value (Phytophthora infestans; [2]) was 91.0%, the “O, Observed % disease control” value (Phytophthora infestans; [2]) was 91.0% and the O-E (Phytophthora infestans; [2]) was 0.0. The “E, Expected % disease control” value (Phytophthora infestans; [3]) was 84.2%, the “O, Observed % disease control” value (Phytophthora infestans; [3]) was 89.6% and the O-E (Phytophthora infestans; [3]) was 5.4. The “E, Expected % disease control” value (Phytophthora infestans; [4]) was 56.4%, the “O, Observed % disease control” value (Phytophthora infestans; [4]) was 84.9% and the O-E (Phytophthora infestans; [4]) was 28.4. For the same compound, the “E, Expected % disease control” value (Phytophthora infestans; [5]) was 38.7%, the “O, Observed % disease control” value (Phytophthora infestans; [5]) was 63.8% and the O-E (Phytophthora infestans; [5]) was 25.1. The “E, Expected % disease control” value (Phytophthora infestans; [6]) was 91.8%, the “O, Observed % disease control” value (Phytophthora infestans; [6]) was 91.7% and the O-E (Phytophthora infestans; [6]) was −0.1. For the same compound, the “E, Expected % disease control” value (Phytophthora infestans; [7]) was 95.1%, the “O, Observed % disease control” value (Phytophthora infestans; [7]) was 98.6% and the O-E (Phytophthora infestans; [7]) was −1.6. For the same compound, the “E, Expected % disease control” value (Phytophthora infestans; [8]) was 93.1%, the “O, Observed % disease control” value (Phytophthora infestans; [8]) was 91.7% and the O-E (Phytophthora infestans; [8]) was −1.4. For the same compound, the “E, Expected % disease control” value (Phytophthora infestans; [9]) was 76.1%, the “O, Observed % disease control” value (Phytophthora infestans; [9]) was 89.9% and the O-E (Phytophthora infestans; [9]) was 13.9. The “E, Expected % disease control” value (Phytophthora infestans; [10]) was 51.1%, the “O, Observed % disease control” value (Phytophthora infestans; [10]) was 86.9% and the O-E (Phytophthora infestans; [10]) was 35.8. For the same compound, the “E, Expected % disease control” value (Phytophthora infestans; [11]) was 95.5%, the “O, Observed % disease control” value (Phytophthora infestans; [11]) was 97.2% and the O-E (Phytophthora infestans; [11]) was 1.7. For the same compound, the “E, Expected % disease control” value (Phytophthora infestans; [12]) was 97.2%, the “O, Observed % disease control” value (Phytophthora infestans; [12]) was 98.7% and the O-E (Phytophthora infestans; [12]) was 1.5. The “E, Expected % disease control” value (Phytophthora infestans; [13]) was 95.6%, the “O, Observed % disease control” value (Phytophthora infestans; [13]) was 97.9% and the O-E (Phytophthora infestans; [13]) was 2.4. For the same compound, the “E, Expected % disease control” value (Phytophthora infestans; [14]) was 87.1%, the “O, Observed % disease control” value (Phytophthora infestans; [14]) was 98.0% and the O-E (Phytophthora infestans; [14]) was 10.9. The “E, Expected % disease control” value (Phytophthora infestans; [15]) was 74.6%, the “O, Observed % disease control” value (Phytophthora infestans; [15]) was 97.0% and the O-E (Phytophthora infestans; [15]) was 22.4. For the same compound, the “performance in combination with A76 (indicative of synergy)” value (Phytophthora infestans; in combination with A76 potato, observed vs expected disease control) was “better than expected”, the “performance in combination with the transgenic line (indicative of synergy)” value (Oidium lycopersici; all three transgenic tomato lines, observed vs expected disease control) was “better than expected” and the “E, expected disease control” value (Oidium lycopersici; [16]) was 97.5%. For the same compound, the “O, observed disease control” value (Oidium lycopersici; [16]) was 93.01%, the O-E (Oidium lycopersici; [16]) was −4.49 and the “E, expected disease control” value (Oidium lycopersici; [17]) was 92.53%. The “O, observed disease control” value (Oidium lycopersici; [17]) was 89.64%, the O-E (Oidium lycopersici; [17]) was −2.89 and the “E, expected disease control” value (Oidium lycopersici; [18]) was 79.68%. For the same compound, the “O, observed disease control” value (Oidium lycopersici; [18]) was 86.84%, the O-E (Oidium lycopersici; [18]) was 7.16 and the “E, expected disease control” value (Oidium lycopersici; [19]) was 74.81%. The “O, observed disease control” value (Oidium lycopersici; [19]) was 87.5%, the O-E (Oidium lycopersici; [19]) was 12.69 and the “E, expected disease control” value (Oidium lycopersici; [20]) was 67.47%. For the same compound, the “O, observed disease control” value (Oidium lycopersici; [20]) was 81.11%, the O-E (Oidium lycopersici; [20]) was 13.64 and the “E, expected disease control” value (Oidium lycopersici; [21]) was 93.9%. For the same compound, the “O, observed disease control” value (Oidium lycopersici; [21]) was 100%, the O-E (Oidium lycopersici; [21]) was 6.1 and the “E, expected disease control” value (Oidium lycopersici; [22]) was 84.21%. For the same compound, the “O, observed disease control” value (Oidium lycopersici; [22]) was 97.12%, the O-E (Oidium lycopersici; [22]) was 12.91 and the “E, expected disease control” value (Oidium lycopersici; [23]) was 67.22%. For the same compound, the “O, observed disease control” value (Oidium lycopersici; [23]) was 89.72%, the O-E (Oidium lycopersici; [23]) was 22.5 and the “E, expected disease control” value (Oidium lycopersici; [24]) was 61.62%. The “O, observed disease control” value (Oidium lycopersici; [24]) was 86.36%, the O-E (Oidium lycopersici; [24]) was 24.74 and the “E, expected disease control” value (Oidium lycopersici; [25]) was 52.54%. The “O, observed disease control” value (Oidium lycopersici; [25]) was 79.57%, the O-E (Oidium lycopersici; [25]) was 27.03 and the “E, expected disease control” value (Oidium lycopersici; [26]) was 93.41%. For the same compound, the “O, observed disease control” value (Oidium lycopersici; [26]) was 96.01%, the O-E (Oidium lycopersici; [26]) was 2.6 and the “E, expected disease control” value (Oidium lycopersici; [27]) was 81.74%. For the same compound, the “O, observed disease control” value (Oidium lycopersici; [27]) was 96.55%, the O-E (Oidium lycopersici; [27]) was 14.81 and the “E, expected disease control” value (Oidium lycopersici; [28]) was 69.49%. For the same compound, the “O, observed disease control” value (Oidium lycopersici; [28]) was 89.47%, the O-E (Oidium lycopersici; [28]) was 19.98 and the “E, expected disease control” value (Oidium lycopersici; [29]) was 63.9%. The “O, observed disease control” value (Oidium lycopersici; [29]) was 90.91%, the O-E (Oidium lycopersici; [29]) was 27.01 and the “E, expected disease control” value (Oidium lycopersici; [30]) was 56.11%. The “O, observed disease control” value (Oidium lycopersici; [30]) was 87.84% and the O-E (Oidium lycopersici; [30]) was 31.73.

From patent US20040097596A1 (priority 2000, published 2004)
